Assays:
[1] = system: HBEpC bronchial epithelial primary cells; assay: Western blotting of whole cell extracts; format: cell-based, human
Procedure: (§1) In addition, whole cell extracts (WCE) were prepared by cell lysis in modified RIPA buffer (50 mmol/L Tris-Cl pH 7.4, 300 mmol/L NaCl, 0.1% NP40, 1% Triton X-100, 0.5% sodium deoxycholate, 0.1% SDS, 5 mmol/L EDTA, 1 mmol/L EGTA, 100 mmol/L sodium fluoride and 1 mmol/L sodium orthovanadate) followed by sonication for 10 seconds. These were analysed by Western Blotting, in which fifty micrograms of protein was loaded in each lane, separated by 4-20% SDS-PAGE, and transferred by semidry electroblotting onto Hybond C Extra nitrocellulose membranes (GE Healthcare, Buckinghamshire, UK).
(§2) Primary antibodies used were: caspase 3 (NB500-210, Novus Biologicals); caspase 9 (sc-17784, Santa Cruz Biotechnology); Cdc7 (K0070-3, MBL International); cyclin A (sc-596, Santa Cruz Biotechnology); cyclin E (MS-870-P, NeoMarkers); Mcm2 pS53 (A300-756A, Bethyl Laboratories); PCNA (610665, BD Biosciences); Rb (554136, BD Biosciences); Rb pS807/811 (9308, Cell Signaling Technologies); TBP (A301-229A, Bethyl Laboratories).
(§3) Blocking, antibody incubations (using various antibodies including anti-Cdc7 or anti-Mcm2 pS53 antibodies), and washing steps were performed.
(§4) Cells were harvested and apoptosis was monitored by phase contrast microscopy, flow cytometry and western blot detection of pro-caspase 3 and 9 cleavage.

[2] = system: IMR90 mesenchymal diploid fibroblasts; assay: Western blotting of whole cell extracts; format: cell-based, human
Procedure: as §1, §2, §3, §4

HBEpC cells [3] = assay: Flow cytometry of DNA content (cell cycle, sub G1); format: cell-based, human
Procedure: (§5) After 24 hours medium was removed and cells were retransfected with control (20 nmol/L), CDC7 (10 nmol/L) plus control (10 nmol/L), or CDC7 (10 nmol/L) plus p53 (9 nmol/L duplex plus 1 nmol/L SMARTpool) siRNA mixtures. Cells were harvested at the indicated time points after the second transfection. Efficient knockdown was assessed by qRT-PCR and/or Western blot.
(§6) To test this hypothesis, HBEpC bronchial epithelial cells and IMR90 mesenchymal fibroblasts were transfected with CDC7-siRNA or control-siRNA 48 hours prior to treatment with 500 nM paclitaxel or DMSO and then cultured for a further 24 hours. Cells were harvested and apoptosis was monitored by phase contrast microscopy, flow cytometry and western blot detection of pro-caspase 3 and 9 cleavage.

IMR90 cells [4] = assay: Flow cytometry of DNA content (cell cycle, sub G1); format: cell-based, human
Procedure: as §5, §6

HBEpC cells [5] = assay: Apoptosis monitored by phase contrast microscopy; format: cell-based, human; conditions: siRNA (CDC7 or control) 48 hours prior to 500 nM paclitaxel for 24 hours
Procedure: as §6

IMR90 cells [6] = assay: Apoptosis monitored by phase contrast microscopy; format: cell-based, human; conditions: siRNA (CDC7 or control) 48 hours prior to 500 nM paclitaxel for 24 hours
Procedure: as §6

CDC7 mRNA in HBEpC cells = assay: qRT-PCR of CDC7 mRNA after CDC7-siRNA transfection; format: cell-based, human; conditions: 72 hours post-transfection, 25 nM siRNA
Text: (§7) Cells were then transfected with CDC7-siRNA to inhibit CDC7 expression. Specifically, CDC7 expression was inhibited with custom double-stranded RNA oligos (5′-[…]-3′ (SEQ ID NO 1) and 5′-[…]-3′ (SEQ ID NO 2) Thermo Scientific), using previously described methods (Tudzarove S. et al 2010 supra.). Non-targeting siRNA was used as a negative control (12935-300, Invitrogen). CDC7 or control siRNA duplexes were transfected using Lipofectamine 2000 (11668019, Invitrogen) according to the manufacturer's recommendations at an optimized concentrations of 10 nM for IMR90 and 25 nM for HBEpC.
(§8) At 72 hours post-transfection, CDC7 mRNA levels were measured using qPCR in order to evaluate the efficiency of transfection with CDC7. In particular, Total RNA was isolated from cells with the PureLink Microto-Midi Total RNA Purification System (Invitrogen) according to the manufacturer's instructions. Total RNA (40 ng) was reverse transcribed, and real-time PCR was performed using a SuperScript III Platinum SYBR Green OneStep qRTPCR kit (Invitrogen) following the manufacturer's instructions. Reactions were carried out in an Eppendorf Mastercycler ep Realplex Real-Time PCR System (Eppendorf, Cambridge, UK), and results were analyzed with Realplex v1.5 software (Eppendorf). […]

CDC7 mRNA in IMR90 cells = assay: qRT-PCR of CDC7 mRNA after CDC7-siRNA transfection; format: cell-based, human; conditions: IMR90, 72 hours post-transfection, 10 nM siRNA
Text: as §7, §8

HBEpC cells [7] = assay: Cell population growth by phase contrast microscopy; format: cell-based, human; conditions: 144 hour time course, plateau 48 to 120 hours post-transfection
Procedure: (§9) Phase contrast microscopy was performed over a period of 144 hours with an inverted Aziover 200m (Carl Zeiss, Welwyn Garden City, Uk) and Axiovision software to assess cell population growth.

IMR90 cells [8] = assay: as above; format: cell-based, human; conditions: IMR90, 144 hour time course; plateau 48 to 120 hours post-transfection
Procedure: as §9

[9] = system: SKOV-3, Saos-2, BT-549 and NCI-H322M cells; assay: Apoptosis by morphology and western blot of pro-caspase 3 and 9 cleavage in cancer cells; format: cell-based; conditions: 96 hours post-transfection; cancer cells lacking functional p53
Procedure: On this basis, RNAi was then used to investigate the effects of Cdc7 loss in epithelial and mesenchymal cancer cell lines deficient in functional p53. In this experiment, SKOV-3 ovarian carcinoma cells (HTB-77, ATCC) and Saos-2 osteosarcoma cells (HTB-85, ATCC) in McCoy's 5A medium (26600, Invitrogen) supplemented with 15% FBS, BT-549 mammary ductal carcinoma cells (HTB-122, ATCC) in RPMI-1640 medium (52400, Invitrogen) supplemented with 10% FBS and 10 μg/ml insulin (10516, Sigma); and NCI-H322M bronchioalveolar carcinoma cells (95111734, ECACC) in RPMI-1640 medium were used.
Cells were transfected with siRNA as described in Example 1 and the effects on mRNA expression, western blotting and cell population growth were assessed also as described in Example 1.

[10] = siRNA (CDC7 or control) 48 hours prior to 500 nM paclitaxel for 24 hours
[11] = IMR90, siRNA (CDC7 or control) 48 hours prior to 500 nM paclitaxel for 24 hours
[12] = IMR90, 72 hours post-transfection

Compound	pro-caspase 3 and 9 levels [1, 10]	pro-caspase 3 and 9 levels [2, 11]	percentage of cells with less than 2C (sub G1) DNA content (HBEpC cells [3]; [10]) [%]	percentage of cells with less than 2C (sub G1) DNA content (IMR90 cells [4]; [11]) [%]	cell morphology (apoptosis) (HBEpC cells [5])	cell morphology (apoptosis) (IMR90 cells [6])	CDC7 mRNA levels reduced relative to control siRNA transfected (CO) cells (CDC7 mRNA in HBEpC cells) [%]	CDC7 mRNA levels reduced relative to control siRNA transfected (CO) cells (CDC7 mRNA in IMR90 cells) [%]	CDC7 protein levels ([1]; 72 hours post-transfection)	Mcm2 phosphorylation at Ser-53 ([1]; 72 hours post-transfection)	CDC7 protein levels [2, 12]	Mcm2 phosphorylation at Ser-53 [2, 12]	cell proliferation (cell numbers) (HBEpC cells [7])	cell proliferation (cell numbers) (IMR90 cells [8])	cell cycle distribution (HBEpC cells [3]; 72 hours post-transfection)	cells with less than 2C (sub G1) DNA content (HBEpC cells [3]; Cdc7-depleted alone)	cell cycle distribution (IMR90 cells [4]; [12])	cells with less than 2C (sub G1) DNA content (IMR90 cells [4]; IMR90, Cdc7-depleted alone)	apoptosis (morphology, cleavage of pro-caspases 3 and 9 in WCE) [9]
CC(=O)O[C@H]1C(=O)[C@@]2(C)[C@H]([C@H](OC(=O)c3ccccc3)[C@]3(O)C[C@H](OC(=O)[C@H](O)[C@@H](NC(=O)c4ccccc4)c4ccccc4)C(C)=C1C3(C)C)[C@]1(OC(C)=O)CO[C@@H]1C[C@@H]2O [paclitaxel]	marked reduction	marked reduction	30	35	morphological signs of apoptosis	morphological signs of apoptosis													
CDC7-siRNA: custom double-stranded RNA oligos (5′-GCUCAGCAGGAAAGGUGUUUU-3′ SEQ ID NO 1 and 5′-AACACCUUUCCUGCUGAGCUU-3′ SEQ ID NO 2) inhibiting CDC7 expression (RNA, backbone not given here)							89	87	undetectable	abolished	undetectable	abolished	cessation of cell proliferation	cessation of cell proliferation	accumulation consistent with a G1 arrest	not detected	accumulation consistent with a G1 arrest	not detected	Induction of apoptosis

Source: patent US20210236494A1, “THERAPEUTIC COMBINATION” (Oncologica UK Ltd., priority 2018, published 2021)
